These results are taken from BindingDB's records for doi:10.1016/j.bmcl.2017.03.037 (Rigel Pharmaceuticals, 2017).

SMILES strings stand for the structures.

This assay in a line: Induction of nuclear translocation of human GFP-tagged NFATc1 expressed in virus infected primary human skeletal muscle myoblasts after 3 hrs by DAPI staining based assay.
For the compound `Clc1cnccc1-c1c[nH]c2cnccc12`, the EC50 was 5.31 µM. This counts as single-digit micromolar.

`Fc1ccc(Cn2cc(-c3ccncc3)c3ccncc32)cc1`: the EC50 was 7.58 µM.

In turn, `c1cc(-c2cn(CCCN3CCOCC3)c3cnccc23)ccn1` displayed a concentration for a half-maximal effect (EC50) of 6.96 µM.

Take `COc1cccc2c(-c3ccnc(N)n3)c[nH]c12`: the EC50 is 9.8 µM.

Compound `c1cc(-c2c[nH]c3cnccc23)ccn1` yielded an EC50 of 2.98 µM.

Compound `Fc1cc(-c2c[nH]c3cnccc23)ccn1` had an EC50 of 4.85 µM.

`CC(C)n1cc(-c2ccncc2)c2ccncc21`: the midpoint of the response, the EC50, lay at 0.31 µM. This EC50 lies about 16-fold lower than the previous one.

For the compound `N#Cc1cccc2c(-c3ccnc(N)n3)c[nH]c12`, the response was half-maximal at 21.7 µM (EC50).

Compound `c1cc(-c2cn(CCC3CC3)c3cnccc23)ccn1` registered an EC50 of 1.59 µM.

`c1ccc2c(-c3c[nH]c4cnccc34)ccnc2c1` gave an EC50 of 43 µM.

Turning to `Cn1cc(-c2ccncc2)c2ccncc21`, the midpoint of the response, the EC50, lay at 2.21 µM.

`Nc1nccc(-c2c[nH]c3cnccc23)n1` showed an EC50 of 4.8 µM.

Turning to `Cc1cc(-c2c[nH]c3cnccc23)ccn1`, the EC50 was 20.8 µM.

On to `COCCn1cc(-c2ccncc2)c2ccncc21`, for which the EC50 was 6.9 µM.
